Test results as given in patent US12215140B2, “Method of stabilizing protein contained in specimen and solution for stabilizing protein contained in specimen” (EIKEN KAGAKU KABUSHIKI KAISHA, priority 2018, dated 2025).

System: hemoglobin-haptoglobin complex
Test: Stability of hemoglobin (as hemoglobin-haptoglobin complex) in samples preserved at 37° C. in preservation solution containing 1 unit/L haptoglobin, Hb measured by latex agglutination method (Examples 1 to 7)
Parameters: species or system human
Conditions: for Hb concentration / Recovery ratio with respect to Hb concentration after 0 days / Recovery ratio with respect to Hb after 0 days: 37° C.; for recovery ratio of hemoglobin in the sample: Feces 1, Feces 2, Feces 3
How it was run: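 Hemoglobin (~300 µg/L) in 0.5% fecal suspension, or without feces, held at 37 °C for 0–21 days in 40 mmol/L HEPES pH 6.8, 0.1% BSA, 0.1% NaN3, 1 unit/L haptoglobin, with 0–100 mmol/L phenylboronic acid ± sugars. Hb quantified by latex agglutination with anti-human Hb rabbit polyclonal; recovery (%) relative to day 0.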

[1] = Feces 1, sugar 50 mmol/L + phenylboronic acid 15 mmol/L, 0 days
[2] = Feces 1, sugar 50 mmol/L + phenylboronic acid 15 mmol/L, 7 days
[3] = Feces 1, sugar 50 mmol/L + phenylboronic acid 15 mmol/L, 14 days
[4] = Feces 1, sugar 100 mmol/L + phenylboronic acid 15 mmol/L, 0 days
[5] = Feces 1, sugar 100 mmol/L + phenylboronic acid 15 mmol/L, 0 days (Table 7)
[6] = Feces 1, sugar 100 mmol/L + phenylboronic acid 15 mmol/L, 7 days
[7] = Feces 1, sugar 100 mmol/L + phenylboronic acid 15 mmol/L, 7 days (Table 7)
[8] = Feces 1, sugar 100 mmol/L + phenylboronic acid 15 mmol/L, 14 days
[9] = Feces 1, sugar 100 mmol/L + phenylboronic acid 15 mmol/L, 14 days (Table 7)
[10] = Feces 1, sugar 100 mmol/L + phenylboronic acid 50 mmol/L, 0 days
[11] = Feces 1, sugar 100 mmol/L + phenylboronic acid 50 mmol/L, 7 days
[12] = Feces 1, sugar 100 mmol/L + phenylboronic acid 50 mmol/L, 14 days
[13] = Feces 1, sugar 100 mmol/L, no phenylboronic acid, 0 days
[14] = Feces 1, sugar 100 mmol/L, no phenylboronic acid, 7 days
[15] = Feces 1, sugar 100 mmol/L, no phenylboronic acid, 14 days
[16] = Feces 2, sugar 50 mmol/L + phenylboronic acid 15 mmol/L, 0 days
[17] = Feces 2, sugar 50 mmol/L + phenylboronic acid 15 mmol/L, 7 days
[18] = Feces 2, sugar 50 mmol/L + phenylboronic acid 15 mmol/L, 14 days
[19] = Feces 2, sugar 100 mmol/L + phenylboronic acid 15 mmol/L, 0 days
[20] = Feces 2, sugar 100 mmol/L + phenylboronic acid 15 mmol/L, 0 days (Table 7)
[21] = Feces 2, sugar 100 mmol/L + phenylboronic acid 15 mmol/L, 7 days
[22] = Feces 2, sugar 100 mmol/L + phenylboronic acid 15 mmol/L, 7 days (Table 7)
[23] = Feces 2, sugar 100 mmol/L + phenylboronic acid 15 mmol/L, 14 days
[24] = Feces 2, sugar 100 mmol/L + phenylboronic acid 15 mmol/L, 14 days (Table 7)
[25] = Feces 2, sugar 100 mmol/L + phenylboronic acid 50 mmol/L, 0 days
[26] = Feces 2, sugar 100 mmol/L + phenylboronic acid 50 mmol/L, 7 days
[27] = Feces 2, sugar 100 mmol/L + phenylboronic acid 50 mmol/L, 14 days
[28] = Feces 2, sugar 100 mmol/L, no phenylboronic acid, 0 days
[29] = Feces 2, sugar 100 mmol/L, no phenylboronic acid, 7 days
[30] = Feces 2, sugar 100 mmol/L, no phenylboronic acid, 14 days
[31] = Feces 3, sugar 50 mmol/L + phenylboronic acid 15 mmol/L, 0 days
[32] = Feces 3, sugar 50 mmol/L + phenylboronic acid 15 mmol/L, 7 days
[33] = Feces 3, sugar 50 mmol/L + phenylboronic acid 15 mmol/L, 14 days
[34] = Feces 3, sugar 100 mmol/L + phenylboronic acid 15 mmol/L, 0 days
[35] = Feces 3, sugar 100 mmol/L + phenylboronic acid 15 mmol/L, 0 days (Table 7)
[36] = Feces 3, sugar 100 mmol/L + phenylboronic acid 15 mmol/L, 7 days
[37] = Feces 3, sugar 100 mmol/L + phenylboronic acid 15 mmol/L, 7 days (Table 7)
[38] = Feces 3, sugar 100 mmol/L + phenylboronic acid 15 mmol/L, 14 days
[39] = Feces 3, sugar 100 mmol/L + phenylboronic acid 15 mmol/L, 14 days (Table 7)
[40] = Feces 3, sugar 100 mmol/L + phenylboronic acid 50 mmol/L, 0 days
[41] = Feces 3, sugar 100 mmol/L + phenylboronic acid 50 mmol/L, 7 days
[42] = Feces 3, sugar 100 mmol/L + phenylboronic acid 50 mmol/L, 14 days
[43] = Feces 3, sugar 100 mmol/L, no phenylboronic acid, 0 days
[44] = Feces 3, sugar 100 mmol/L, no phenylboronic acid, 7 days
[45] = Feces 3, sugar 100 mmol/L, no phenylboronic acid, 14 days
[46] = No feces, sugar 50 mmol/L + phenylboronic acid 15 mmol/L, 0 days
[47] = No feces, sugar 50 mmol/L + phenylboronic acid 15 mmol/L, 7 days
[48] = No feces, sugar 50 mmol/L + phenylboronic acid 15 mmol/L, 14 days
[49] = No feces, sugar 100 mmol/L + phenylboronic acid 15 mmol/L, 0 days
[50] = No feces, sugar 100 mmol/L + phenylboronic acid 15 mmol/L, 0 days (Table 7)
[51] = No feces, sugar 100 mmol/L + phenylboronic acid 15 mmol/L, 7 days
[52] = No feces, sugar 100 mmol/L + phenylboronic acid 15 mmol/L, 7 days (Table 7)
[53] = No feces, sugar 100 mmol/L + phenylboronic acid 15 mmol/L, 14 days
[54] = No feces, sugar 100 mmol/L + phenylboronic acid 15 mmol/L, 14 days (Table 7)
[55] = No feces, sugar 100 mmol/L + phenylboronic acid 50 mmol/L, 0 days
[56] = No feces, sugar 100 mmol/L + phenylboronic acid 50 mmol/L, 7 days
[57] = No feces, sugar 100 mmol/L + phenylboronic acid 50 mmol/L, 14 days
[58] = No feces, sugar 100 mmol/L, no phenylboronic acid, 0 days
[59] = No feces, sugar 100 mmol/L, no phenylboronic acid, 7 days
[60] = No feces, sugar 100 mmol/L, no phenylboronic acid, 14 days

OC[C@@H](O)[C@@H](O)[C@H](O)[C@H](O)CO [Mannitol, mannitol]
Hb concentration [1]: 288 µg/L | Recovery ratio with respect to Hb concentration after 0 days [1]: 100% | Hb concentration [2]: 278 µg/L | Recovery ratio with respect to Hb concentration after 0 days [2]: 96% | Hb concentration [3]: 270 µg/L | Recovery ratio with respect to Hb concentration after 0 days [3]: 94% | Hb concentration [4]: 281 µg/L | Recovery ratio with respect to Hb concentration after 0 days [4]: 100% | Hb concentration [5]: 301 µg/L | Recovery ratio with respect to Hb after 0 days [5]: 100% | Hb concentration [6]: 279 µg/L | Recovery ratio with respect to Hb concentration after 0 days [6]: 99% | Hb concentration [7]: 288 µg/L | Recovery ratio with respect to Hb after 0 days [7]: 96% | Hb concentration [8]: 276 µg/L | Recovery ratio with respect to Hb concentration after 0 days [8]: 98% | Hb concentration [9]: 287 µg/L | Recovery ratio with respect to Hb after 0 days [9]: 95% | Hb concentration [10]: 270 µg/L | Recovery ratio with respect to Hb after 0 days [10]: 100% | Hb concentration [11]: 257 µg/L | Recovery ratio with respect to Hb after 0 days [11]: 95% | Hb concentration [12]: 255 µg/L | Recovery ratio with respect to Hb after 0 days [12]: 95% | Hb concentration [13]: 276 µg/L | Recovery ratio with respect to Hb concentration after 0 days [13]: 100% | Hb concentration [14]: 156 µg/L | Recovery ratio with respect to Hb concentration after 0 days [14]: 57% | Hb concentration [15]: 130 µg/L | Recovery ratio with respect to Hb concentration after 0 days [15]: 47% | Hb concentration [16]: 296 µg/L | Recovery ratio with respect to Hb concentration after 0 days [16]: 100% | Hb concentration [17]: 291 µg/L | Recovery ratio with respect to Hb concentration after 0 days [17]: 98% | Hb concentration [18]: 280 µg/L | Recovery ratio with respect to Hb concentration after 0 days [18]: 95% | Hb concentration [19]: 290 µg/L | Recovery ratio with respect to Hb concentration after 0 days [19]: 100% | Hb concentration [20]: 298 µg/L | Recovery ratio with respect to Hb after 0 days [20]: 100% | Hb concentration [21]: 290 µg/L | Recovery ratio with respect to Hb concentration after 0 days [21]: 100% | Hb concentration [22]: 284 µg/L | Recovery ratio with respect to Hb after 0 days [22]: 95% | Hb concentration [23]: 286 µg/L | Recovery ratio with respect to Hb concentration after 0 days [23]: 99% | Hb concentration [24]: 284 µg/L | Recovery ratio with respect to Hb after 0 days [24]: 95% | Hb concentration [25]: 268 µg/L | Recovery ratio with respect to Hb after 0 days [25]: 100% | Hb concentration [26]: 263 µg/L | Recovery ratio with respect to Hb after 0 days [26]: 98% | Hb concentration [27]: 274 µg/L | Recovery ratio with respect to Hb after 0 days [27]: 102% | Hb concentration [28]: 284 µg/L | Recovery ratio with respect to Hb concentration after 0 days [28]: 100% | Hb concentration [29]: 97 µg/L | Recovery ratio with respect to Hb concentration after 0 days [29]: 34% | Hb concentration [30]: 81 µg/L | Recovery ratio with respect to Hb concentration after 0 days [30]: 28% | Hb concentration [31]: 293 µg/L | Recovery ratio with respect to Hb concentration after 0 days [31]: 100% | Hb concentration [32]: 247 µg/L | Recovery ratio with respect to Hb concentration after 0 days [32]: 84% | Hb concentration [33]: 238 µg/L | Recovery ratio with respect to Hb concentration after 0 days [33]: 81% | Hb concentration [34]: 286 µg/L | Recovery ratio with respect to Hb concentration after 0 days [34]: 100% | Hb concentration [35]: 288 µg/L | Recovery ratio with respect to Hb after 0 days [35]: 100% | Hb concentration [36]: 243 µg/L | Recovery ratio with respect to Hb concentration after 0 days [36]: 85% | Hb concentration [37]: 231 µg/L | Recovery ratio with respect to Hb after 0 days [37]: 80% | Hb concentration [38]: 240 µg/L | Recovery ratio with respect to Hb concentration after 0 days [38]: 84% | Hb concentration [39]: 220 µg/L | Recovery ratio with respect to Hb after 0 days [39]: 76% | Hb concentration [40]: 254 µg/L | Recovery ratio with respect to Hb after 0 days [40]: 100% | Hb concentration [41]: 233 µg/L | Recovery ratio with respect to Hb after 0 days [41]: 92% | Hb concentration [42]: 226 µg/L | Recovery ratio with respect to Hb after 0 days [42]: 89% | Hb concentration [43]: 282 µg/L | Recovery ratio with respect to Hb concentration after 0 days [43]: 100% | Hb concentration [44]: 93 µg/L | Recovery ratio with respect to Hb concentration after 0 days [44]: 33% | Hb concentration [45]: 78 µg/L | Recovery ratio with respect to Hb concentration after 0 days [45]: 28% | Hb concentration [46]: 270 µg/L | Recovery ratio with respect to Hb concentration after 0 days [46]: 100% | Hb concentration [47]: 263 µg/L | Recovery ratio with respect to Hb concentration after 0 days [47]: 98% | Hb concentration [48]: 254 µg/L | Recovery ratio with respect to Hb concentration after 0 days [48]: 94% | Hb concentration [49]: 269 µg/L | Recovery ratio with respect to Hb concentration after 0 days [49]: 100% | Hb concentration [50]: 287 µg/L | Recovery ratio with respect to Hb after 0 days [50]: 100% | Hb concentration [51]: 260 µg/L | Recovery ratio with respect to Hb concentration after 0 days [51]: 97% | Hb concentration [52]: 272 µg/L | Recovery ratio with respect to Hb after 0 days [52]: 95% | Hb concentration [53]: 252 µg/L | Recovery ratio with respect to Hb concentration after 0 days [53]: 94% | Hb concentration [54]: 269 µg/L | Recovery ratio with respect to Hb after 0 days [54]: 94% | Hb concentration [55]: 254 µg/L | Recovery ratio with respect to Hb after 0 days [55]: 100% | Hb concentration [56]: 242 µg/L | Recovery ratio with respect to Hb after 0 days [56]: 95% | Hb concentration [57]: 241 µg/L | Recovery ratio with respect to Hb after 0 days [57]: 95% | Hb concentration [58]: 261 µg/L | Recovery ratio with respect to Hb concentration after 0 days [58]: 100% | Hb concentration [59]: 251 µg/L | Recovery ratio with respect to Hb concentration after 0 days [59]: 96% | Hb concentration [60]: 244 µg/L | Recovery ratio with respect to Hb concentration after 0 days [60]: 93% | recovery ratio of hemoglobin in the sample (sugar 100 mmol/L further added to other arylboronic acids (3-CPBA, 3-HPBA, 3-APBA) 15 mmol/L): further improved | recovery ratio of hemoglobin in the sample (sugar 50 or 100 mmol/L further added to phenylboronic acid 15 mmol/L): remarkably improved
